# Paper PMC6025150, “Synthesis, enzyme inhibitory kinetics mechanism and computational study of N-(4-methoxyphenethyl)-N-(substituted)-4-methylbenzenesulfonamides as novel therapeutic agents for Alzheimer’s disease” (PeerJ, 2018)
# “And” between values parts separate entries of the source, which are not always exact repeats. Identical values can stand only once. Like-named read-outs stand apart in the source and are kept apart here.
# Molecular target: T1, acetylcholinesterase (from human erythrocytes) (Homo sapiens, UniProt P22303)
# T1 construct: acetylcholinesterase (from human erythrocytes, purchased from Sigma-Aldrich, Seoul, Korea); purchased Sigma-Aldrich, Seoul, Korea; host or cells: human erythrocytes (natural source)
# T1 sequence (P22303 32-617 isoform P22303-2 limits assumed): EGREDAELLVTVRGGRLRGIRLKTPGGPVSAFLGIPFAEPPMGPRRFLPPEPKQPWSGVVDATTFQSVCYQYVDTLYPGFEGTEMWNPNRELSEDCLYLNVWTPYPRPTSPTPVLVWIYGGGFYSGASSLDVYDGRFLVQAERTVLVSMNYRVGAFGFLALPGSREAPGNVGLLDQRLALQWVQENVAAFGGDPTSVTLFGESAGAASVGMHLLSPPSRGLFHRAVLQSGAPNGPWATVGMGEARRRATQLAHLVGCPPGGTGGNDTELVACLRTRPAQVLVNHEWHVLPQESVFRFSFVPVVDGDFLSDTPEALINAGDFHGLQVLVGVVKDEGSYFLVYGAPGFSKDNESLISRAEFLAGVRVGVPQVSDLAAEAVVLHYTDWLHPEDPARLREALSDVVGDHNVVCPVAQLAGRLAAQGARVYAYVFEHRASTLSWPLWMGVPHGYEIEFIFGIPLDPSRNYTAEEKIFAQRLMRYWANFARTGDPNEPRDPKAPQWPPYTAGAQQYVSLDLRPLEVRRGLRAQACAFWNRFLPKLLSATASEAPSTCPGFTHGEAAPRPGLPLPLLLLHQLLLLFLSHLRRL
# Assay: biochemical
# Parameters: LogIC50 (best-fit value): unit not given here
# Conditions: for inhibition (Mean): mean of three; for IC50 (best-fit value): unit not given
# Procedure: The inhibitory activities of synthesized compounds were determined spectrophotometrically using acetylthiocholine iodide as substrate by following the method of ([Ellman et al., 1961]). Briefly, The assay solution consisted of 180 µL of 50 mM Tris-HCl buffer, pH 7.7, containing (0.1 M sodium chloride and 0.02 M magnesium chloride) and 20 µL of enzyme (AChE, EC 3.1.1.7), acetylcholinesterase (from human erythrocytes, purchased from Sigma-Aldrich, Seoul, Korea) solution (50 U per well); increasing concentrations of test compounds (10 µL) were added to the assay solution and pre incubated for 30 min at 4 °C. After that 5,5′ Dithiobis (2 nitrobenzoic acid) (0.3 mM, 20 µL) and acetylthiocholine iodide (1.8 mM, 20 µL) were added to the reaction mixture and incubated at 37 °C for 10 min, followed by the measurement of absorbance at 412 nm. For non-enzymatic reaction, the assays were carried out with a blank containing all components except acetylcholinesterase. The assay measurements were measured at 412 nm using a micro plate reader (OPTI Max Tunable; Molecular Devices, Sunnyvale, CA, USA) having a wave-length range from 340–850 nm; for 96 well plates. The reaction rates were compared and percent inhibition was calculated due to the presence of tested inhibitors. […] Each concentration was analyzed in three independent experiments run in triplicate. The IC50 values were calculated by nonlinear regression using GraphPad Prism 5.0.
# The % of Inhibition of Acetylcholinesterase was calculated as following: Inhibition%=B−S∕B×100. Here, the B and S are the absorbance’s for the blank and samples.
# [1] = each of three independent experiments, Raw Data of IC50 sheet, read-out: IC50, single experiment (converted)
# [2] = from human erythrocytes, mean ± SEM, read-out: Acetylcholinesterase IC50 ± SEM
# [3] = mean converted to uM, Raw Data of IC50 sheet, read-out: IC50
# [4] = mean of three experiments, Raw Data of IC50 sheet, read-out: IC50 (Mean) (converted)
# [5] = values as printed in abstract and discussion, read-out: acetylcholinesterase IC50
# [6] = log(inhibitor) vs. response fit, single run, IC50 Raw Data sheet
# [7] = log(inhibitor) vs. response fit, single run, unit inferred, IC50 Raw Data sheet, read-out: IC50 (best-fit value) (converted)
# [8] = Conc: 0.0306373 (unit not given), Raw Data of IC50 sheet
# [9] = Conc: 0.0612745 (unit not given), Raw Data of IC50 sheet
# [10] = Conc: 0.122549 (unit not given), Raw Data of IC50 sheet
# [11] = Conc: 0.245098 (unit not given), Raw Data of IC50 sheet
# [12] = Conc: 0.490196 (unit not given), Raw Data of IC50 sheet
# [13] = Conc: 0.980392 (unit not given), Raw Data of IC50 sheet
# [14] = Conc: 1.96078 (unit not given), Raw Data of IC50 sheet
# [15] = Conc: 3.92157 (unit not given), Raw Data of IC50 sheet
# [16] = Concentration 0.0306373 (unit not given), IC50 Raw Data sheet
# [17] = Concentration 0.0612745 (unit not given), IC50 Raw Data sheet
# [18] = Concentration 0.122549 (unit not given), IC50 Raw Data sheet
# [19] = Concentration 0.245098 (unit not given), IC50 Raw Data sheet
# [20] = Concentration 0.490196 (unit not given), IC50 Raw Data sheet
# [21] = Concentration 0.980392 (unit not given), IC50 Raw Data sheet
# [22] = Concentration 1.96078 (unit not given), IC50 Raw Data sheet
# [23] = Concentration 3.92157 (unit not given), IC50 Raw Data sheet
# [24] = each of three independent experiments, Raw Data of IC50 sheet
# [25] = mean of three experiments, Raw Data of IC50 sheet
compound,measurement,setting,value
"CCN(CCc1ccc(OC)cc1)S(=O)(=O)c1ccc(C)cc1 [Compound 5a, N-Ethyl-N-(4-methoxyphenethyl)-4-methylbenzensulfonamide]",IC50,[1],25 µM and 21 µM and 21.6 µM
same,IC50,[2],22.5 ± 1.23 µM
same,IC50,[3],22.5 µM
same,IC50,[4],22.5 µM
"CCCN(CCc1ccc(OC)cc1)S(=O)(=O)c1ccc(C)cc1 [Compound 5b, N-(4-Methoxyphenethyl)-4-methyl-N-(1-propyl)benzensulfonamide]",IC50,[1],4.77 µM and 3.7 µM and 4.01 µM
same,IC50,[2],4.16 ± 0.318 µM
same,IC50,[3],4.16 µM
same,IC50,[4],4.16 µM
same,IC50,[5],0.119 µM
"CCCCN(CCc1ccc(OC)cc1)S(=O)(=O)c1ccc(C)cc1 [Compound 5d, N-(1-Butyl)-N-(4-methoxyphenethyl)-4-methylbenzensulfonamide]",IC50,[1],0.0997 µM and 0.134 µM
same,IC50,[2],0.12 ± 0.0102 µM
same,LogIC50 (best-fit value),[6],-1.347
same,IC50,[7],0.125 µM
same,IC50,[3],0.12 µM
same,IC50,[4],0.12 µM
same,IC50,[5],0.124 ± 0.021 µM
"CCCCCN(CCc1ccc(OC)cc1)S(=O)(=O)c1ccc(C)cc1 [Compound 5e, N-(4-Methoxyphenethyl)-4-methyl-N-(1-pentyl)benzensulfonamide]",IC50,[1],0.374 µM and 0.414 µM and 0.406 µM
same,IC50,[2],0.398 ± 0.0123 µM
same,LogIC50 (best-fit value),[6],-0.8411
same,IC50,[7],0.384 µM
same,IC50,[3],0.398 µM
same,IC50,[4],0.398 µM
"CCCCCCCN(CCc1ccc(OC)cc1)S(=O)(=O)c1ccc(C)cc1 [Compound 5f, N-(1-Heptyl)-N-(4-methoxyphenethyl)-4-methylbenzensulfonamide]",IC50,[1],0.474 µM and 0.427 µM
same,IC50,[2],0.444 ± 0.015 µM
same,LogIC50 (best-fit value),[6],-0.759
same,IC50,[7],0.432 µM
same,IC50,[3],0.444 µM
same,IC50,[4],0.444 µM
"COc1ccc(CCN(CCCc2ccccc2)S(=O)(=O)c2ccc(C)cc2)cc1 [Compound 5g, N-(4-Methoxyphenethyl)-4-methyl-N-(3-phenyl-1-propyl) benzensulfonamide]","inhibition, single experiment",[8],16.111 and 16.8631
same,inhibition (Mean),[8],16.1834
same,"inhibition, single experiment",[9],30.2326 and 29.5369
same,inhibition (Mean),[9],29.6527
same,"inhibition, single experiment",[10],32.9175 and 33.3333
same,inhibition (Mean),[10],32.8451
same,"inhibition, single experiment",[11],43.5555 and 42.1199
same,inhibition (Mean),[11],42.7571
same,"inhibition, single experiment",[12],49.3413 and 49.9987
same,inhibition (Mean),[12],49.6905
same,"inhibition, single experiment",[13],59.3325 and 58.7749
same,inhibition (Mean),[13],59.2851
same,"inhibition, single experiment",[14],66.9964 and 65.1126
same,inhibition (Mean),[14],66.1998
same,"inhibition, single experiment",[15],74.8965 and 74.0186
same,inhibition (Mean),[15],74.3992
same,% inhibition,[16],15.576%
same,% inhibition,[17],32.2845%
same,% inhibition,[18],29.1886%
same,% inhibition,[19],42.5959%
same,% inhibition,[20],49.7315%
same,% inhibition,[21],59.7479%
same,% inhibition,[22],66.4906%
same,% inhibition,[23],74.2824%
same,"IC50, single experiment",[24],0.3267 µg/mL and 0.3464 µg/mL and 0.341 µg/mL
same,IC50,[2],0.798 ± 0.0138 µM
same,LogIC50 (best-fit value),[6],-0.4313
same,IC50 (best-fit value),[6],0.3704
same,IC50,[3],0.798 µM
same,IC50 (Mean),[25],0.338 µg/mL
"COc1ccc(CCN(Cc2ccccc2C)S(=O)(=O)c2ccc(C)cc2)cc1 [Compound 5h, N-(4-Methoxyphenethyl)-4-methyl-N-(2-methylbenzyl) benzensulfonamide]","inhibition, single experiment",[8],41.4444 and 41.0099
same,inhibition (Mean),[8],40.984
same,"inhibition, single experiment",[9],45.3557 and 45.1011
same,inhibition (Mean),[9],44.9216
same,"inhibition, single experiment",[10],50.9025 and 51.1299
same,inhibition (Mean),[10],51.0341
same,"inhibition, single experiment",[11],63.8777 and 63.001
same,inhibition (Mean),[11],63.2456
same,"inhibition, single experiment",[12],71.1111 and 70.9965
same,inhibition (Mean),[12],70.8325
same,"inhibition, single experiment",[13],78.3125 and 78.8745
same,inhibition (Mean),[13],78.5659
same,"inhibition, single experiment",[14],83.9784 and 86.5532
same,inhibition (Mean),[14],85.3051
same,"inhibition, single experiment",[15],96.8547 and 96.1111
same,inhibition (Mean),[15],96.3251
same,% inhibition,[16],40.4976%
same,% inhibition,[17],44.3081%
same,% inhibition,[18],51.0699%
same,% inhibition,[19],62.858%
same,% inhibition,[20],70.3899%
same,% inhibition,[21],78.5107%
same,% inhibition,[22],85.3837%
same,% inhibition,[23],96.0094%
same,"IC50, single experiment",[24],0.4151 µg/mL and 0.4171 µg/mL
same,IC50,[2],1.011 ± 0.0053 µM
same,LogIC50 (best-fit value),[6],-0.3874
same,IC50 (best-fit value),[6],0.4098
same,IC50,[3],1.01 µM
same,IC50 (Mean),[25],0.414 µg/mL
